Experiments:
[1] = test system: antibodies in sera from SARS patients (sera 1a, 1b, 2, 6, 37, 62, London, SARS-yellow, SARS-green); assay type: binding, human; set-up: Binding of serum 6 to linear peptides of protein X1 of SARS-CoV Urbani / Binding of serum 37 to linear peptides of protein X1 of SARS-CoV Urbani / Binding of serum 6 to looped/cyclic peptide (PEPSCAN-ELISA) / Binding of serum 37 to looped/cyclic peptide (PEPSCAN-ELISA) / Binding of serum 37 to looped/cyclic peptides of protein X1 of SARS-CoV Urbani / Binding of serum 6 to linear peptides of protein X2 / Binding of serum 37 to linear peptides of protein X2 / Binding of serum 37 to looped/cyclic peptides of protein X2 of SARS-CoV Urbani / Binding of serum 6 to linear peptides of protein M of SARS-CoV Urbani / Binding of serum 37 to linear peptides of protein M of SARS-CoV Urbani / Binding of serum 6 to looped/cyclic peptides of protein M of SARS-CoV Urbani / Binding of serum 37 to looped/cyclic peptides of protein M of SARS-CoV Urbani / Binding of serum 6 to linear peptides of protein X3 of SARS-CoV Urbani / Binding of serum 37 to linear peptides of protein X3 of SARS-CoV Urbani / Binding of serum 37 to looped/cyclic peptides of protein X3 of SARS-CoV Urbani / Binding of serum 6 to linear peptides of protein X4 of SARS-CoV Urbani / Binding of serum 37 to linear peptides of protein X4 of SARS-CoV Urbani / Binding of serum 37 to looped/cyclic peptides of protein X4 of SARS-CoV Urbani / Binding of serum 6 to linear peptides of protein X5 of SARS-CoV Urbani / Binding of serum 37 to linear peptides of protein X5 of SARS-CoV Urbani / Binding of serum 37 to looped/cyclic peptides of protein X5 of SARS-CoV Urbani / Binding of serum 6 to linear peptides of protein N of SARS-CoV Urbani / Binding of serum 37 to linear peptides of protein N of SARS-CoV Urbani / Binding of serum 6 to linear peptide (PEPSCAN-ELISA) / Binding of serum 1a to looped/cyclic peptides of protein N of SARS-CoV Urbani / Binding of serum 1b to looped/cyclic peptides of protein N of SARS-CoV Urbani / Binding of serum 2 to looped/cyclic peptides of protein N of SARS-CoV Urbani / Binding of serum 6 to looped/cyclic peptides of protein N of SARS-CoV Urbani / Binding of serum 37 to looped/cyclic peptides of protein N of SARS-CoV Urbani / Binding of serum 62 to looped/cyclic peptides of protein N of SARS-CoV Urbani / Binding of serum London to looped/cyclic peptides of protein N of SARS-CoV Urbani / Binding of serum SARS-green to looped/cyclic peptides of protein N of SARS-CoV Urbani: unit not given here
[2] = test system: control sera (pooled serum of ten healthy LUMC hospital workers; commercial negative donor pooled serum from the Dutch bloodbank); assay type: binding, human; set-up: Binding of Control serum LUMC to linear peptides / Binding of Control serum Blood-bank to linear peptides / Binding of Control serum LUMC to looped peptides / Binding of Control Serum Blood-Bank to Looped peptides / Binding of Control serum LUMC to linear peptides of the protein M of SARS-CoV Urbani / Binding of Control serum Blood-bank to linear peptides of the protein M of SARS-CoV Urbani / Binding of Control serum LUMC to looped peptides of the protein M of SARS-CoV Urbani / Binding of Control Serum Blood-Bank to Looped peptides of the protein M of SARS-CoV Urbani: unit not given here
[3] = test system: rabbit serum obtained by immunizing a rabbit with the SARS-CoV strain Frankfurt 1; assay type: binding; set-up: Binding of a rabbit serum to linear peptides / Binding of a rabbit serum to looped peptides / Rabbit serum linear peptides / Rabbit serum looped peptides / Binding of a rabbit serum to linear peptides of protein N of SARS-CoV Urbani (Rabbit serum linear peptides) / Binding of a rabbit serum to looped/cyclic peptides of protein N of SARS-CoV Urbani (Rabbit serum looped peptides): unit not given here
[4] = test system: recombinant human anti-SARS-CoV antibody 03-018; assay type: binding; set-up: Binding of antibody 03-018 to linear peptides of the N protein of SARS-CoV Urbani / Binding of antibody 03-018 to looped/cyclic peptides of the N protein of SARS-CoV Urbani: unit not given here

RSSSRSRGNSRNSTP
0.4: Binding of Control Serum Blood-Bank to Looped peptides [2] | Binding of Control serum LUMC to looped peptides [2]
0.9: Binding of Control serum Blood-bank to linear peptides [2]
0.3: Binding of serum 1a to linear peptide (PEPSCAN-ELISA) [1] | Binding of serum 62 to looped/cyclic peptides of protein N of SARS-CoV Urbani [1] | Binding of serum London to looped/cyclic peptides of protein N of SARS-CoV Urbani [1] | Binding of serum SARS-yellow to looped/cyclic peptides of protein N of SARS-CoV Urbani [1]
0.6: Binding of serum 62 to linear peptide (PEPSCAN-ELISA) [1]
0.5: Binding of serum 37 to linear peptide (PEPSCAN-ELISA) [1] | Binding of serum 37 to looped/cyclic peptides of protein N of SARS-CoV Urbani [1] | Binding of serum London to linear peptide (PEPSCAN-ELISA) [1] | Binding of serum SARS-yellow to linear peptide (PEPSCAN-ELISA) [1]
0.8: Binding of Control serum LUMC to linear peptides [2]
0.1: Binding of serum 1b to linear peptide (PEPSCAN-ELISA) [1] | Binding of serum 6 to looped/cyclic peptides of protein N of SARS-CoV Urbani [1] | Binding of a rabbit serum to linear peptides of protein N of SARS-CoV Urbani (Rabbit serum linear peptides) [3] | Binding of antibody 03-018 to linear peptides of the N protein of SARS-CoV Urbani [4]
0.2: Binding of serum 1a to looped/cyclic peptides of protein N of SARS-CoV Urbani [1] | Binding of serum 1b to looped/cyclic peptides of protein N of SARS-CoV Urbani [1] | Binding of serum 2 to linear peptide (PEPSCAN-ELISA) [1] | Binding of serum 2 to looped/cyclic peptides of protein N of SARS-CoV Urbani [1] | Binding of serum 6 to linear peptide (PEPSCAN-ELISA) [1] | Binding of serum SARS-green to linear peptide (PEPSCAN-ELISA) [1] | Binding of serum SARS-green to looped/cyclic peptides of protein N of SARS-CoV Urbani [1] | Binding of a rabbit serum to looped/cyclic peptides of protein N of SARS-CoV Urbani (Rabbit serum looped peptides) [3] | Binding of antibody 03-018 to looped/cyclic peptides of the N protein of SARS-CoV Urbani [4]

RVRGGDGKMKELSPR
0.6: Binding of serum 37 to looped/cyclic peptides of protein N of SARS-CoV Urbani [1] | Binding of serum SARS-green to linear peptides of protein N of SARS-CoV Urbani [1] | Binding of serum SARS-yellow to looped/cyclic peptides of protein N of SARS-CoV Urbani [1] | Binding of a rabbit serum to looped/cyclic peptides of protein N of SARS-CoV Urbani (Rabbit serum looped peptides) [3]
0.9: Binding of Control serum LUMC to linear peptides [2]
0.7: Binding of serum 37 to linear peptides of protein N of SARS-CoV Urbani [1] | Binding of serum SARS-yellow to linear peptides of protein N of SARS-CoV Urbani [1] | Binding of Control Serum Blood-Bank to Looped peptides [2] | Binding of Control serum LUMC to looped peptides [2]
0.5: Binding of serum 62 to looped/cyclic peptides of protein N of SARS-CoV Urbani [1] | Binding of serum London to linear peptides of protein N of SARS-CoV Urbani [1]
0.2: Binding of serum 1b to linear peptides of protein N of SARS-CoV Urbani [1] | Binding of serum 1b to looped/cyclic peptides of protein N of SARS-CoV Urbani [1] | Binding of serum 6 to linear peptides of protein N of SARS-CoV Urbani [1] | Binding of a rabbit serum to linear peptides of protein N of SARS-CoV Urbani (Rabbit serum linear peptides) [3] | Binding of antibody 03-018 to looped/cyclic peptides of the N protein of SARS-CoV Urbani [4]
0.4: Binding of serum 2 to looped/cyclic peptides of protein N of SARS-CoV Urbani [1] | Binding of serum 6 to looped/cyclic peptides of protein N of SARS-CoV Urbani [1] | Binding of serum London to looped/cyclic peptides of protein N of SARS-CoV Urbani [1]
0.3: Binding of serum 1a to linear peptides of protein N of SARS-CoV Urbani [1] | Binding of serum 1a to looped/cyclic peptides of protein N of SARS-CoV Urbani [1] | Binding of serum 2 to linear peptides of protein N of SARS-CoV Urbani [1]
0.1: Binding of serum SARS-green to looped/cyclic peptides of protein N of SARS-CoV Urbani [1] | Binding of antibody 03-018 to linear peptides of the N protein of SARS-CoV Urbani [4]
0.8: Binding of serum 62 to linear peptides of protein N of SARS-CoV Urbani [1] | Binding of Control serum Blood-bank to linear peptides [2]

RWYFYYLGTGPEASL
0.3: Binding of serum 1a to linear peptides of protein N of SARS-CoV Urbani [1] | Binding of serum 6 to looped/cyclic peptides of protein N of SARS-CoV Urbani [1] | Binding of serum SARS-green to linear peptides of protein N of SARS-CoV Urbani [1]
0.1: Binding of antibody 03-018 to linear peptides of the N protein of SARS-CoV Urbani [4]
0.4: Binding of serum 1a to looped/cyclic peptides of protein N of SARS-CoV Urbani [1] | Binding of serum 1b to looped/cyclic peptides of protein N of SARS-CoV Urbani [1] | Binding of serum London to linear peptides of protein N of SARS-CoV Urbani [1]
0.2: Binding of serum 1b to linear peptides of protein N of SARS-CoV Urbani [1] | Binding of serum 2 to linear peptides of protein N of SARS-CoV Urbani [1] | Binding of serum 6 to linear peptides of protein N of SARS-CoV Urbani [1] | Binding of a rabbit serum to linear peptides of protein N of SARS-CoV Urbani (Rabbit serum linear peptides) [3] | Binding of antibody 03-018 to looped/cyclic peptides of the N protein of SARS-CoV Urbani [4]
0.8: Binding of serum 37 to linear peptides of protein N of SARS-CoV Urbani [1] | Binding of serum 62 to linear peptides of protein N of SARS-CoV Urbani [1] | Binding of serum SARS-green to looped/cyclic peptides of protein N of SARS-CoV Urbani [1] | Binding of Control serum LUMC to looped peptides [2]
1.1: Binding of serum 37 to looped/cyclic peptides of protein N of SARS-CoV Urbani [1]
0.9: Binding of serum 62 to looped/cyclic peptides of protein N of SARS-CoV Urbani [1]
0.6: Binding of serum SARS-yellow to linear peptides of protein N of SARS-CoV Urbani [1] | Binding of Control serum Blood-bank to linear peptides [2] | Binding of a rabbit serum to looped/cyclic peptides of protein N of SARS-CoV Urbani (Rabbit serum looped peptides) [3]
0.7: Binding of serum SARS-yellow to looped/cyclic peptides of protein N of SARS-CoV Urbani [1] | Binding of Control Serum Blood-Bank to Looped peptides [2] | Binding of Control serum LUMC to linear peptides [2]
0.5: Binding of serum 2 to looped/cyclic peptides of protein N of SARS-CoV Urbani [1] | Binding of serum London to looped/cyclic peptides of protein N of SARS-CoV Urbani [1]

SDNGPQSNQRSAPRI
0.2: Binding of serum 1a to linear peptides of protein N of SARS-CoV Urbani [1] | Binding of serum 6 to linear peptides of protein N of SARS-CoV Urbani [1] | Binding of serum 37 to linear peptides of protein N of SARS-CoV Urbani [1] | Binding of serum SARS-green to looped/cyclic peptides of protein N of SARS-CoV Urbani [1] | Binding of a rabbit serum to looped/cyclic peptides of protein N of SARS-CoV Urbani (Rabbit serum looped peptides) [3] | Binding of antibody 03-018 to looped/cyclic peptides of the N protein of SARS-CoV Urbani [4]
0.6: Binding of Control serum Blood-bank to linear peptides [2]
0.0: Binding of serum 1b to linear peptides of protein N of SARS-CoV Urbani [1] | Binding of serum 1b to looped/cyclic peptides of protein N of SARS-CoV Urbani [1] | Binding of serum SARS-green to linear peptides of protein N of SARS-CoV Urbani [1] | Binding of antibody 03-018 to linear peptides of the N protein of SARS-CoV Urbani [4]
0.4: Binding of serum 62 to linear peptides of protein N of SARS-CoV Urbani [1] | Binding of serum 62 to looped/cyclic peptides of protein N of SARS-CoV Urbani [1] | Binding of serum London to looped/cyclic peptides of protein N of SARS-CoV Urbani [1]
0.1: Binding of serum 2 to linear peptides of protein N of SARS-CoV Urbani [1] | Binding of serum SARS-yellow to looped/cyclic peptides of protein N of SARS-CoV Urbani [1] | Binding of a rabbit serum to linear peptides of protein N of SARS-CoV Urbani (Rabbit serum linear peptides) [3]
0.3: Binding of serum 1a to looped/cyclic peptides of protein N of SARS-CoV Urbani [1] | Binding of serum 2 to looped/cyclic peptides of protein N of SARS-CoV Urbani [1] | Binding of serum 6 to looped/cyclic peptides of protein N of SARS-CoV Urbani [1]
0.5: Binding of serum 37 to looped/cyclic peptides of protein N of SARS-CoV Urbani [1] | Binding of serum London to linear peptides of protein N of SARS-CoV Urbani [1] | Binding of serum SARS-yellow to linear peptides of protein N of SARS-CoV Urbani [1] | Binding of Control Serum Blood-Bank to Looped peptides [2] | Binding of Control serum LUMC to linear peptides [2] | Binding of Control serum LUMC to looped peptides [2]

— US20070128217A1 (priority 2003, published 2007)
